Source: patent US20200405697A1, “Antitumor Agent” (Taiho Pharmaceutical Co., Ltd, priority 2017, published 2020)

Legend:
[1] = test system: MV-4-11 (Human blood cancer cell line); assay: Effect of combination of sulfonamide compound and other antitumor agent (CellTiter-Glo, combination index): MV-4-11
Description: Each cell line was seeded at 90 L/well to a 96-well culture plate (Thermo Fisher Scientific, Inc.) according to the above tables. The cell-seeded plate was cultured in an incubator set to 37° C. and 500 CO2. On the day following seeding, varying concentrations of the sulfonamide compound and the other antitumor agent were added in combination to the cells. […] The serial dilutions of each compound, or DW was added at 5μL/well to the plate such that each compound and DW, or the sulfonamide compound and the other antitumor agent were combined. […] The plate after the addition was cultured at 37° C. for 3 days under 5% CO2 conditions.
Three days later, CellTiter-Glo(R) 2.0 Reagent (Promega Corporation) was added at 100 μL/well, and the amount of luminescence was measured using a plate reader EnSpire(R) Multimode Plate Reader (PerkinElmer Co., Ltd.).
An average value from 3 wells was calculated as to each drug condition from the obtained data, and cell survival rate normalized against control wells supplemented with the vehicle (DW) was calculated. A Fa (fractional inhibition) value was calculated by subtracting the cell survival rate from 1.

[2] = test system: A549 (Human lung cancer cell line); assay: Effect of combination of sulfonamide compound and other antitumor agent (CellTiter-Glo, combination index): A549
[3] = Example Compound 5 247 nM + Cytarabine 175 nM
[4] = Example Compound 5 555 nM + Cytarabine 393 nM
[5] = Example Compound 5 833 nM + Cytarabine 590 nM
[6] = Example Compound 5 1250 nM + Cytarabine 885 nM
[7] = Example Compound 14 519 nM + Cytarabine 175 nM
[8] = Example Compound 14 1170 nM + Cytarabine 394 nM
[9] = Example Compound 14 1750 nM + Cytarabine 589 nM
[10] = Example Compound 14 2630 nM + Cytarabine 886 nM
[11] = Example Compound 209A 96.6 nM + Cytarabine 175 nM
[12] = Example Compound 209A 217 nM + Cytarabine 393 nM
[13] = Example Compound 209A 326 nM + Cytarabine 590 nM
[14] = Example Compound 235A 90.1 nM + Cytarabine 116 nM
[15] = Example Compound 235A 135 nM + Cytarabine 174 nM
[16] = Example Compound 235A 304 nM + Cytarabine 393 nM
[17] = Example Compound 235A 456 nM + Cytarabine 589 nM
[18] = Example Compound 235A 684 nM + Cytarabine 884 nM
[19] = Example Compound 14 874 nM + Cytarabine 72.2 nM
[20] = Example Compound 14 1310 nM + Cytarabine 108 nM
[21] = Example Compound 14 1970 nM + Cytarabine 163 nM
[22] = Example Compound 14 2950 nM + Cytarabine 244 nM
[23] = Example Compound 14 4420 nM + Cytarabine 365 nM
[24] = Example Compound 209A 188 nM + Cytarabine 72.2 nM
[25] = Example Compound 209A 282 nM + Cytarabine 108 nM
[26] = Example Compound 209A 635 nM + Cytarabine 244 nM
[27] = Example Compound 209A 952 nM + Cytarabine 365 nM
[28] = Example Compound 235A 780 nM + Cytarabine 111 nM
[29] = Example Compound 235A 1170 nM + Cytarabine 166 nM
[30] = Example Compound 235A 1750 nM + Cytarabine 249 nM
[31] = Example Compound 5 247 nM + Decitabine 50.2 nM
[32] = Example Compound 5 370 nM + Decitabine 75.2 nM
[33] = Example Compound 5 555 nM + Decitabine 113 nM
[34] = Example Compound 5 833 nM + Decitabine 169 nM
[35] = Example Compound 5 1250 nM + Decitabine 254 nM
[36] = Example Compound 14 519 nM + Decitabine 50.1 nM
[37] = Example Compound 14 778 nM + Decitabine 75.2 nM
[38] = Example Compound 14 1170 nM + Decitabine 113 nM
[39] = Example Compound 14 1750 nM + Decitabine 169 nM
[40] = Example Compound 14 2630 nM + Decitabine 254 nM
[41] = Example Compound 209A 64.4 nM + Decitabine 33.4 nM
[42] = Example Compound 209A 96.6 nM + Decitabine 50.1 nM
[43] = Example Compound 209A 217 nM + Decitabine 113 nM
[44] = Example Compound 209A 326 nM + Decitabine 169 nM
[45] = Example Compound 235A 90.1 nM + Decitabine 33.4 nM
[46] = Example Compound 235A 135 nM + Decitabine 50.1 nM
[47] = Example Compound 235A 304 nM + Decitabine 113 nM
[48] = Example Compound 235A 456 nM + Decitabine 169 nM
[49] = Example Compound 235A 684 nM + Decitabine 254 nM
[50] = Example Compound 14 1970 nM + Decitabine 1340 nM
[51] = Example Compound 14 2950 nM + Decitabine 2000 nM
[52] = Example Compound 14 4420 nM + Decitabine 3000 nM
[53] = Example Compound 209A 635 nM + Decitabine 2000 nM
[54] = Example Compound 235A 520 nM + Decitabine 1340 nM
[55] = Example Compound 235A 780 nM + Decitabine 2020 nM
[56] = Example Compound 235A 1170 nM + Decitabine 3020 nM
[57] = Example Compound 5 370 nM + Fludarabine nucleoside 6150 nM
[58] = Example Compound 5 555 nM + Fludarabine nucleoside 9220 nM
[59] = Example Compound 14 778 nM + Fludarabine nucleoside 6150 nM
[60] = Example Compound 14 1170 nM + Fludarabine nucleoside 9250 nM
[61] = Example Compound 235A 304 nM + Fludarabine nucleoside 9220 nM
[62] = Example Compound 14 874 nM + Fludarabine nucleoside 5930 nM
[63] = Example Compound 14 1310 nM + Fludarabine nucleoside 8890 nM
[64] = Example Compound 14 1970 nM + Fludarabine nucleoside 13400 nM
[65] = Example Compound 14 2950 nM + Fludarabine nucleoside 20000 nM
[66] = Example Compound 209A 188 nM + Fludarabine nucleoside 5930 nM
[67] = Example Compound 209A 282 nM + Fludarabine nucleoside 8890 nM
[68] = Example Compound 209A 635 nM + Fludarabine nucleoside 20000 nM
[69] = Example Compound 235A 520 nM + Fludarabine nucleoside 8870 nM
[70] = Example Compound 235A 780 nM + Fludarabine nucleoside 13300 nM
[71] = Example Compound 235A 1170 nM + Fludarabine nucleoside 20000 nM
[72] = Example Compound 235A 1750 nM + Fludarabine nucleoside 29900 nM

SMILES: Nc1ccn([C@@H]2O[C@H](CO)[C@@H](O)[C@@H]2O)c(=O)n1 [Cytarabine, cytarabine]
- CI value [1, 3]: 0.638
- Fa value [1, 3]: 0.4093
- CI value [1, 4]: 0.553
- Fa value [1, 4]: 0.9212
- CI value [1, 5]: 0.366
- Fa value [1, 5]: 0.9948
- CI value [1, 6]: 0.386
- Fa value [1, 6]: 0.9986
- CI value [1, 7]: 0.766
- Fa value [1, 7]: 0.2908
- CI value [1, 8]: 0.599
- Fa value [1, 8]: 0.8743
- CI value [1, 9]: 0.387
- Fa value [1, 9]: 0.9860
- CI value [1, 10]: 0.269
- Fa value [1, 10]: 0.9984
- CI value [1, 11]: 0.739
- Fa value [1, 11]: 0.5055
- CI value [1, 12]: 0.510
- Fa value [1, 12]: 0.9736
- CI value [1, 13]: 0.330
- Fa value [1, 13]: 0.9981
- CI value [1, 14]: 0.740
- Fa value [1, 14]: 0.1704
- CI value [1, 15]: 0.645
- Fa value [1, 15]: 0.4683
- CI value [1, 16]: 0.510
- Fa value [1, 16]: 0.9522
- CI value [1, 17]: 0.365
- Fa value [1, 17]: 0.9958
- CI value [1, 18]: 0.374
- Fa value [1, 18]: 0.9989
- CI value [2, 19]: 0.670
- Fa value [2, 19]: 0.3745
- CI value [2, 20]: 0.790
- Fa value [2, 20]: 0.4356
- CI value [2, 21]: 0.616
- Fa value [2, 21]: 0.6170
- CI value [2, 22]: 0.498
- Fa value [2, 22]: 0.7754
- CI value [2, 23]: 0.490
- Fa value [2, 23]: 0.8591
- CI value [2, 24]: 0.777
- Fa value [2, 24]: 0.3588
- CI value [2, 25]: 0.759
- Fa value [2, 25]: 0.4675
- CI value [2, 26]: 0.474
- Fa value [2, 26]: 0.7994
- CI value [2, 27]: 0.574
- Fa value [2, 27]: 0.8410
- CI value [2, 28]: 0.878
- Fa value [2, 28]: 0.4015
- CI value [2, 29]: 0.693
- Fa value [2, 29]: 0.6327
- CI value [2, 30]: 0.581
- Fa value [2, 30]: 0.8184

SMILES: Nc1ncn([C@H]2C[C@H](O)[C@@H](CO)O2)c(=O)n1 [Decitabine, decitabine]
- CI value [1, 31]: 0.685
- Fa value [1, 31]: 0.3382
- CI value [1, 32]: 0.725
- Fa value [1, 32]: 0.4753
- CI value [1, 33]: 0.709
- Fa value [1, 33]: 0.6924
- CI value [1, 34]: 0.693
- Fa value [1, 34]: 0.8888
- CI value [1, 35]: 0.608
- Fa value [1, 35]: 0.9844
- CI value [1, 36]: 0.707
- Fa value [1, 36]: 0.3361
- CI value [1, 37]: 0.872
- Fa value [1, 37]: 0.4089
- CI value [1, 38]: 0.849
- Fa value [1, 38]: 0.5994
- CI value [1, 39]: 0.717
- Fa value [1, 39]: 0.8350
- CI value [1, 40]: 0.599
- Fa value [1, 40]: 0.9588
- CI value [1, 41]: 0.793
- Fa value [1, 41]: 0.2551
- CI value [1, 42]: 0.839
- Fa value [1, 42]: 0.3812
- CI value [1, 43]: 0.715
- Fa value [1, 43]: 0.8536
- CI value [1, 44]: 0.627
- Fa value [1, 44]: 0.9689
- CI value [1, 45]: 0.725
- Fa value [1, 45]: 0.2126
- CI value [1, 46]: 0.757
- Fa value [1, 46]: 0.3356
- CI value [1, 47]: 0.760
- Fa value [1, 47]: 0.7532
- CI value [1, 48]: 0.687
- Fa value [1, 48]: 0.9339
- CI value [1, 49]: 0.535
- Fa value [1, 49]: 0.9935
- CI value [2, 50]: 0.542
- Fa value [2, 50]: 0.3867
- CI value [2, 51]: 0.577
- Fa value [2, 51]: 0.5183
- CI value [2, 52]: 0.602
- Fa value [2, 52]: 0.6737
- CI value [2, 53]: 0.569
- Fa value [2, 53]: 0.5615
- CI value [2, 54]: 0.570
- Fa value [2, 54]: 0.2897
- CI value [2, 55]: 0.567
- Fa value [2, 55]: 0.4383
- CI value [2, 56]: 0.650
- Fa value [2, 56]: 0.5537

SMILES: Nc1nc(F)nc2c1ncn2[C@@H]1O[C@H](CO)[C@@H](O)[C@@H]1O [Fludarabine nucleoside, fludarabine nucleoside]
- CI value [1, 57]: 0.739
- Fa value [1, 57]: 0.6600
- CI value [1, 58]: 0.293
- Fa value [1, 58]: 0.9981
- CI value [1, 59]: 0.786
- Fa value [1, 59]: 0.5954
- CI value [1, 60]: 0.296
- Fa value [1, 60]: 0.9984
- CI value [1, 61]: 0.320
- Fa value [1, 61]: 0.9988
- CI value [2, 62]: 0.549
- Fa value [2, 62]: 0.3063
- CI value [2, 63]: 0.387
- Fa value [2, 63]: 0.7007
- CI value [2, 64]: 0.377
- Fa value [2, 64]: 0.8610
- CI value [2, 65]: 0.537
- Fa value [2, 65]: 0.8736
- CI value [2, 66]: 0.558
- Fa value [2, 66]: 0.3666
- CI value [2, 67]: 0.386
- Fa value [2, 67]: 0.7059
- CI value [2, 68]: 0.515
- Fa value [2, 68]: 0.8634
- CI value [2, 69]: 0.568
- Fa value [2, 69]: 0.4460
- CI value [2, 70]: 0.423
- Fa value [2, 70]: 0.7798
- CI value [2, 71]: 0.504
- Fa value [2, 71]: 0.8525
- CI value [2, 72]: 0.734
- Fa value [2, 72]: 0.8595
